{"source": "patent US8044057B2", "about": "“Methods for suppressing an immune response or treating a proliferative disorder” (The United States of America as represented by the …, priority 2003, dated 2011)", "key": {"A549 cells": {"test_system": "A549 cells", "test": "Propidium iodide flow cytometry cell cycle analysis in A549 cells", "assay_type": "cell-based, human"}, "P70 S6 kinase": {"test_system": "P70 S6 kinase", "test": "Western blot of phospho-p70 S6 kinase T389 in PASM cells", "assay_type": "cell-based, human", "protocol": "FIGS. 4A-4D are bar graphs and digital images showing that LY303511 inhibits serum-stimulated phosphorylation of S6K and Akt (FIGS. 4A and 4B), as well as proliferation in PASM cells (FIGS. 4C and 4D). After incubation in serum-free medium for 24 hours, PASM cells were incubated without or with 100 μM LY303511, rapamycin, 200 ng/ml, or 200 nM wortmannin (FIG. 4A), or 0-100 μM LY303511 (FIG. 4B), for 1 hour before the addition of 10% FBS for 30 min and preparation of cell lysates. Equal amounts of protein (20 μg/gel) were separated by SDS-PAGE and transferred to nitrocellulose membranes before immunodetection of phospho-p70 S6 kinase T389 (pS6K) orphospho-Akt S473 (pAkt) by Western blot. Data are from one experiment representative of five.\nHPASM cells were purchased from Clonetics and passaged according to the manufacturer's instructions. Cells were plated in 100 mm dishes, and allowed to grow to near confluence before serum starvation for 24 hours. […] Cells were homogenized and the indicated proteins were detected by Western blot.\nMeasurement of protein phosphorylation: A549 cells were incubated in serum-free medium without or with inhibitors for 1 hour, as indicated, before incubation for 30 minutes with a mixture of LPS, 100 μg/ml (Sigma; St. Louis, Mo.) and IFN-γ, 100 U/ml (Roche; Nutley, N.J.). […] Integrated band densities were quantified using Scion Image beta 3b software."}, "PC-3 cells": {"test_system": "PC-3 cells", "test": "PC-3 prostate adenocarcinoma tumor growth in nude mice", "assay_type": "in vivo, mouse", "protocol": "FIG. 6A-6B are bar graphs showing that LY303511 inhibits the growth of prostate adenocarcinoma cells (PC-3) cells in nude mice. LY303511, 10 mg/kg/d was administered intraperitoneally to attenuate PC-3 tumor growth in nude mice. The degree of growth inhibition was proportional to the duration of treatment with LY303511. […] FIG. 6C is a graph of a Kaplan-Mieir survival analysis. The analysis includes the premise that an event happens when a tumor reaches 300 mm^3. The y-axis depicts the probability that tumor size is less than 300 mm^3.\nThe effect of LY303511 on tumor growth was assessed in vivo. Human prostate adenocarcinoma cells (PC-3 cells, ATCC No. CTL-1435) were culture in vitro 5 before harvesting and implantation. For each mouse, 1×10^6 cells in 20% Matrigel™ (matrix) were implanted by subcutaneous injection into the flank. Mice were subdivided into six groups of ten mice each. Treatment protocols were begun (Day 1) when tumors reached approximately 150 mm^3, and tumor volumes (=Caliper length×width^2/2) were measured for thirty days at the indicated time points. Data were expressed as the average tumor volume +/− SEM for each treatment group and time point. The data is shown both in FIG. 6A and 6B. (*p<0.05 by one way ANOVA for inter-group comparisons at each time point. FIG. 6C is a Kaplan-meier analysis, representing the probability that tumor volumes are less than 300 mm^3 at any given time point (p<0.001 by log-rank test for inter-group comparison)."}}}
{"compound": "O=c1cc(N2CCNCC2)oc2c(-c3ccccc3)cccc12", "note": "[LY303511, 2-(4-piperazinyl)-8-phenyl-4H-1-benzopyran-4-one]", "values": [{"measurement": "proportion of cells in G2/M", "setting": "A549 cells; 100 μM LY303511, 24 hours", "result": "remained unchanged"}, {"measurement": "fraction of cells in S phase", "setting": "A549 cells; 24 hours, 10 or 100 μM LY303511 without or with rapamycin 200 ng/ml", "result": "significantly reduced the fraction of cells in S phase"}, {"measurement": "apoptosis or necrosis", "setting": "A549 cells; flow cytometric analysis of propidium iodide-stained cells", "result": "did not induce apoptosis or necrosis"}, {"measurement": "IC50", "setting": "P70 S6 kinase; Homo sapiens, pulmonary artery smooth muscle cells, densitometry, read-out: IC50 for inhibition of S6K phosphorylation", "result": "~1000", "unit": "nM"}, {"measurement": "basal and serum-stimulated phosphorylation of P70 S6 kinase", "setting": "P70 S6 kinase; PASM cells, 10% FBS for 30 minutes", "result": "inhibited basal and serum-stimulate phosphorylation of P70 S6 kinase"}, {"measurement": "degree of growth inhibition versus duration of treatment", "setting": "PC-3 cells; 10 mg/kg daily for 5, 10 or 20 days", "result": "direct proportional to the duration of treatment"}, {"measurement": "tumor growth inhibition, 20 day course versus ten day course", "setting": "PC-3 cells; 10 mg/kg daily, FIG. 6C", "result": "as effective at inhibiting tumor growth as a ten day course"}, {"measurement": "PC-3 tumor growth", "setting": "PC-3 cells; 10 mg/kg intraperitoneally daily", "result": "inhibited the growth of prostate adenocarcinoma cells"}, {"measurement": "tumor burden", "setting": "PC-3 cells; LY303511 10 mg/kg daily, Doxorubicin 10 mg/kg once on Day 1", "result": "decrease tumor burden"}]}
